Laboratory results as given in patent US20190322981A1, “MEANS AND METHODS FOR THE GENERATION OF OLIGODENDROCYTES” (Westfaelische Wilhelms-Universitaet Muenster, priority 2016, published 2019).

Assays:
[1] = tested on: iOL (SON-transduced human iPSC-derived NPC); assay: Compound screen: differentiation-promoting effect of drug candidates on iOL (O4 and MBP immunocytochemistry); format: cell-based; settings: for toxic influence on iOL: at higher concentrations (tested 0.5, 1, 5 μM); for formation of MBP+ mature iOL relative to T3-treated cultures: drug candidate at 0.5, 1, 5 μM; for effect on formation of O4+ iOL compared to DMSO control: T3 60 ng/ml or drug candidate at 0.5, 1, 5 μM
Experimental: For immunocytochemical analysis, an equal volume of 4% PFA in PBS was added to the culture medium and cells were pre-fixed for 10 min at room temperature (RT). After removing the supernatant, cells were fixed for an additional 15 minutes with 4% PFA in PBS and washed three times with PBS. Fixed cells were permeabilized by adding 0.2% Triton X-100 (Sigma) in PBS for 15 min at RT (This step was omitted for NG2, O4 and GalC staining). Subsequently, blocking was performed by incubating the cells with 5% normal goat serum (NGS; Gibco) and 5% fetal calf serum (FCS; Gibco) for 30 min at RT. Primary antibodies were applied overnight at 4° C. in blocking solution. Following three washing steps with PBS, cells were incubated with Alexa Fluor conjugated secondary antibodies diluted in PBS for 1 h at RT. Cells were subsequently washed three times with PBS, including a Hoechst counterstaining for nuclei in the second washing step. Cells on glass coverslips were mounted in Dako Fluorescent Mounting Medium (Dako) and visualized on a Zeiss LSM700 confocal microscope. Cells on plastic cell culture plates were visualized on a Leica DM16000 B inverted microscope.
To assess the sensitivity of iOL towards differentiation promoting drugs, iPSC-derived NPC were transduced with concentrated SON virus particle as described above. Viral medium was removed after 24 h and replaced with GIM lacking T3. The end of the virus infection period was termed day 0. At day 5 of differentiation, cells were detached, singularized and reseeded at densities of 5×10^4 cells in matrigel-coated 48-well plates or 1.5×10^5 cells in 24-well plates containing matrigel-coated glass coverslips. Cells were allowed to recover in minimum DM consisting of DMEM-F12 with 1:200 N2 supplement, 1:100 B27 supplement lacking vitamin A, 1% penicillin/streptomycin/glutamine, 200 μM AA and 100 μM dbcAMP. After 24 h cells were treated with vehicle alone (0.01% (v/v) DMSO) as a negative control, 60 ng/ml T3 as a positive control, or with a drug candidate dissolved in DMSO at three different concentrations (0.5 μM, 1 μM, 5 μM) in minimum DM. The drug candidates comprised miconazole (Sigma), clobetasol (TCI), benztropine (Sigma), indometacin (Sigma), clemastine (Sigma) and oxybutynin (Sigma). Medium was changed every other day and cells were fixed in 4% PFA for immunocytochemical analysis after 21 days of treatment. Investigators were blinded for immunocytochemical analysis.
Identification of drugs inducing remyelination via promotion of oligodendroglial differentiation presents a promising approach for the treatment of demyelinating disorders like MS. Thus, we assessed whether iOL can be utilized to identify compounds promoting oligodendroglial differentiation. We selected six drug candidates (miconazole, clobetasol, benztropine, indometacin, clemastine and oxybutynin) which have been previously described to promote differentiation or myelination of rodent OL^1, 18-20. iOL cultures were treated with either vehicle (0.01% (v/v) DMSO) as a negative control, thyroid hormone (T3) as a positive control, or the drug candidate dissolved in DMSO at three different concentrations (0.5 μM, 1 μM, 5 μM) (FIG. 7a-d).

[2] = tested on: MAPT-OL (iOL carrying the N279K MAPT mutation); assay: Stress-induced cell death: rotenone on O4+ iOL, cleaved CASPASE 3 / O4 double-staining; format: cell-based, human; settings: rotenone 100, 250 and 500 nM, 48 h; all results combined, control cultures set to 100%
Experimental: To examine the effect of rotenone (Sigma) on the viability of iOL derived from either N279K MAPT or Ctrl cells O4^+ iOL were purified using the MACS technology after 21 days of differentiation and replated at a density of 8×10^3 cells per well into matrigel-coated 96-well plates. After another 6 days in DM, cells were treated with either vehicle (0.01% (v/v) DMSO) or rotenone dissolved in DMSO at three different concentrations (100 nM, 250 nM, 500 nM). […] Investigators were blinded for immunocytochemical analysis.
After 28 days of differentiation, O4^+ iOL harboring the N279K mutation (MAPT-OL) were morphologically indistinguishable from their gene corrected control cell lines (MAPT-GC-OL) (FIG. 7e) and featured similar differentiation efficiencies among all cell lines included (FIG. 7f). We next set out to investigate whether the N279K MAPT mutation induces an altered expression of TAU isoforms in iOL. We purified O4^+ iOL using FACS before RNA sample preparation. […] FTDP-17 patients display widespread neurodegeneration due to increased cellular vulnerability. […]

SMILES: CN1[C@@H]2CC[C@H]1C[C@@H](OC(c1ccccc1)c1ccccc1)C2 [benztropine]
- toxic influence on iOL ([1]; 21 days): toxic influence
- formation of MBP+ mature iOL relative to T3-treated cultures ([1]; minimum DM, 21 days): comparable to T3-treated cultures

SMILES: Clc1ccc(COC(Cn2ccnc2)c2ccc(Cl)cc2Cl)c(Cl)c1 (stereo not drawn) [miconazole]
- increase of MBP+ cells compared to DMSO control cultures ([1]; 1 μM, minimum DM, 21 days): almost tenfold increase
- toxic influence on iOL ([1]; 21 days): toxic influence
- toxic effect on iOL ([1]; fivefold higher concentration than the effective 1 μM): toxic effect
- differentiation-promoting effect on iOL, ranked among the tested compounds ([1]; six drug candidates compared): strongest effect on iOL

SMILES: CCN(CC)CC#CCOC(=O)C(O)(c1ccccc1)C1CCCCC1 (stereo not drawn) [oxybutynin]
- effect on formation of O4+ iOL compared to DMSO control ([1]; minimum DM, 21 days): failed to promote the formation of O4^+ iOL

SMILES: C=C(C)[C@H]1Cc2c(ccc3c2O[C@@H]2COc4cc(OC)c(OC)cc4[C@@H]2C3=O)O1 [rotenone]
- average increase of cell death (cleaved CASPASE-3+ iOL) in MAPT-OL [2]: 48.9±18.7%

SMILES: N[C@@H](Cc1cc(I)c(Oc2ccc(O)c(I)c2)c(I)c1)C(=O)O [T3, Triiodo-L-Thyronine]
- O4+ cells ([1]; 60 ng/ml T3 (positive control), minimum DM, 21 days, DMSO control 14.01±2.89%): 28.25±3.47%

SMILES: C[C@H]1C[C@H]2[C@@H]3CCC4=CC(=O)C=C[C@]4(C)[C@@]3(F)[C@@H](O)C[C@]2(C)[C@@]1(O)C(=O)CCl [clobetasol]
- formation of MBP+ mature iOL relative to T3-treated cultures ([1]; minimum DM, 21 days): comparable to T3-treated cultures

SMILES: CN1CCC[C@@H]1CCO[C@](C)(c1ccccc1)c1ccc(Cl)cc1 [clemastine]
- effect on formation of O4+ iOL compared to DMSO control ([1]; minimum DM, 21 days): failed to promote the formation of O4^+ iOL
- toxic influence on iOL ([1]; 21 days): toxic influence
